Measured values as given in ChEMBL document CHEMBL1212798, “High concentration of raltegravir in semen of HIV-infected men: results from a substudy of the EASIER-ANRS 138 trial” (2010).

How the values were obtained:
Assay type in all cases: functional
[1] = system: Human immunodeficiency virus 1; assay: Antiviral activity against HIV1
[2] = system: Human immunodeficiency virus 1; assay: Antiviral activity against HIV1-infected in human assessed as decrease in semen viral RNA level measured after 5 hrs post dose
[3] = system: Human immunodeficiency virus 1; assay: Antiviral activity against HIV1-infected in human assessed as decrease in plasma viral RNA level measured after 9 hrs post dose

**Q.** With `Cc1nnc(C(=O)NC(C)(C)c2nc(C(=O)NCc3ccc(F)cc3)c(O)c(=O)n2C)o1` [RALTEGRAVIR] as the compound, how does the Virucidal [1] read?
**A.** 14.6 ng/mL

**Q.** What about the Activity [2] of the same compound?
**A.** 100 mL⁻¹

**Q.** And the Activity [3]?
**A.** 50 mL⁻¹
